Assay results from US20240050428A1 (Cullgen (Shanghai), Inc., priority 2020, published 2024).
Read-outs that look alike come from different tables or passages of the source.

How the values were obtained:
MOLM-13 cells = test: Cell viability assay (CellTiter-Glo) in MOLM-13 cells, alone or with gilteritinib; type: cell-based
MV4;11 cells = test: Cell viability assay (CellTiter-Glo) in MV4;11 cells, alone or with gilteritinib; type: cell-based; details: read-out: MV4
[1] = Homo sapiens, MOLM-13, 72 h, MOLM-13 cells, compound alone (without gilteritinib), three days, CellTiter-Glo, read-out: MOLM-13 IC50
[2] = Homo sapiens, MOLM-13, 72 h, MOLM-13 cells, with gilteritinib 20 nM, three days, CellTiter-Glo, read-out: MOLM-13 IC50 gilteritinib
[3] = Homo sapiens, MV4-11, 72 h, MV4;11 cells, compound alone (without gilteritinib), three days, CellTiter-Glo, 11 IC50
[4] = Homo sapiens, MV4-11, 72 h, MV4;11 cells, with gilteritinib 10 nM, three days, CellTiter-Glo, 11 IC50 gilteritinib
[5] = Homo sapiens, MOLM-13, 72 h, MOLM-13 cells, compound with gilteritinib 20 nM, three days, CellTiter-Glo, read-out: MOLM-13 IC50 gilteritinib
[6] = Homo sapiens, MV4-11, 72 h, MV4;11 cells, compound with gilteritinib 10 nM, three days, CellTiter-Glo, 11 IC50 gilteritinib

Structure (SMILES)	IC50 (MOLM-13 cells; [1]) [µM]	IC50 (MOLM-13 cells; [2]) [µM]	IC50 (MV4;11 cells; [3]) [µM]	IC50 (MV4;11 cells; [4]) [µM]	IC50 (MOLM-13 cells; [5]) [µM]	IC50 (MV4;11 cells; [6]) [µM]	other results
O=C1CCC(N2C(=O)c3ccc(CNCCCn4cc(-c5cnc6ccccc6n5)c(C5CC5)n4)cc3C2=O)C(=O)N1 (centres unmarked) [GS-313, 5-(((3-(3-Cyclopropyl-4-(quinoxalin-2-yl)-1H-pyrazol-1-yl)propyl)amino)methyl)-2-(2,6-dioxopiperidin-3-yl)isoindoline-1,3-dione]	> 1	> 1	> 1	> 1			
O=C1CCC(N2C(=O)c3ccc(NCCC[C@H]4C[C@H](n5cc(-c6nccc7cccnc67)c(C6CC6)n5)C4)cc3C2=O)C(=O)N1 (stereo partly drawn) [GS-625, 5-((3-(trans-3-(3-Cyclopropyl-4-(1,7-naphthyridin-8-yl)-1H-pyrazol-1-yl)cyclobutyl)propyl)amino)-2-(2,6-dioxopiperidin-3-yl)isoindoline-1,3-dione]	0.1 to 1		0.01 to 0.1		0.01 to 0.1	< 0.01	
O=C1CCC(N2C(=O)c3ccc(NCCc4cccc(N5CCC(n6cc(-c7cnc8ccccc8n7)cn6)CC5)c4)cc3C2=O)C(=O)N1 (centres unmarked) [GS-152, 2-(2,6-Dioxopiperidin-3-yl)-5-((3-(4-(4-(quinoxalin-2-yl)-1H-pyrazol-1-yl)piperidin-1-yl)phenethyl)amino)isoindoline-1,3-dione]	0.1 to 1	0.01 to 0.1	0.1 to 1	0.01 to 0.1			
O=C1CCC(N2Cc3cc(CNC(=O)C(F)(F)c4ccc(Cl)cc4)ccc3C2=O)C(=O)N1 (centres unmarked) [CC-90009, reference compound]							IC50 (MOLM-13 cells; MOLM-13 cells, with 20 nM gilteritinib, 3 days, CellTiter-Glo, read-out: MOLM-13 IC50 gilteritinib): 0.0086 µM; IC50 (MOLM-13 cells; MOLM-13 cells, without gilteritinib, 3 days, CellTiter-Glo, read-out: MOLM-13 IC50): 0.103 µM; IC50 (MV4;11 cells; MV4;11 cells, with 10 nM gilteritinib, 3 days, CellTiter-Glo, 11 IC50 gilteritinib): 0.0071 µM; IC50 (MV4;11 cells; MV4;11 cells, without gilteritinib, 3 days, CellTiter-Glo, 11 IC50): 0.054 µM
Cc1cn(CCCCCCNc2ccc3c(c2)C(=O)N(C2CCC(=O)NC2=O)C3=O)nc1-c1cnc2ccccc2n1 (centres unmarked) [GS-546, 2-(2,6-Dioxopiperidin-3-yl)-5-((6-(4-methyl-3-(quinoxalin-2-yl)-TH-pyrazol-1-yl)hexyl)amino)isoindoline-1,3-dione]	> 1		> 1		0.01 to 0.1	0.1 to 1	
CN1CCN(c2ccc3ncc(-c4cnn(CCCCCCNc5ccc6c(c5)C(=O)N(C5CCC(=O)NC5=O)C6=O)c4)nc3c2)CC1 (centres unmarked) [GS-529, 2-(2,6-Dioxopiperidin-3-yl)-5-((6-(4-(7-(4-methylpiperazin-1-yl)quinoxalin-2-yl)-1H-pyrazol-1-yl)hexyl)amino)isoindoline-1,3-dione]	> 1		0.01 to 0.1		< 0.01	< 0.01	
O=C1CCC(N2C(=O)c3ccc(NC[C@H]4C[C@H](n5cc(-c6cccc(NC7COC7)n6)c(C6CC6)n5)C4)cc3C2=O)C(=O)N1 (stereo partly drawn) [GS-260, 5-(((trans-3-(3-Cyclopropyl-4-(6-(oxetan-3-ylamino)pyridin-2-yl)-1H-pyrazol-1-yl)cyclobutyl)methyl)amino)-2-(2,6-dioxopiperidin-3-yl)isoindoline-1,3-dione]	0.1 to 1	> 1	> 1	> 1			
Cc1nc(-c2cnc3ccccc3n2)cn1CCCCCCNc1ccc2c(c1)C(=O)N(C1CCC(=O)NC1=O)C2=O (centres unmarked) [GS-380, 2-(2,6-Dioxopiperidin-3-yl)-5-((6-(2-methyl-4-(quinoxalin-2-yl)-1H-imidazol-1-yl)hexyl)amino)isoindoline-1,3-dione]	0.1 to 1	0.1 to 1	> 1	> 1			
O=C1CCC(N2C(=O)c3ccc(NC[C@H]4C[C@H](n5cc(-c6cc7nccnc7cn6)c(C6CC6)n5)C4)cc3C2=O)C(=O)N1 (stereo partly drawn) [GS-285, 5-(((trans-3-(3-Cyclopropyl-4-(pyrido[3,4-b]pyrazin-7-yl)-1H-pyrazol-1-yl)cyclobutyl)methyl)amino)-2-(2,6-dioxopiperidin-3-yl)isoindoline-1,3-dione]	0.1 to 1	0.01 to 0.1	0.01 to 0.1	< 0.01			
O=C1CCC(N2Cc3cc(OCCCN4CCC(n5cc(-c6cnc7ccccc7n6)cn5)CC4)ccc3C2=O)C(=O)N1 (centres unmarked) [GS-492, 3-(1-oxo-5-(3-(4-(4-(quinoxalin-2-yl)-1H-pyrazol-1-yl)piperidin-1-yl)propoxy)isoindolin-2-yl)piperidine-2,6-dione]	> 1		> 1		> 1	> 1	
O=C1CCC(N2C(=O)c3ccc(NCCCCCC(=O)N4CCN(c5ccccn5)CC4)cc3C2=O)C(=O)N1 (centres unmarked) [GS-019, 2-(2,6-Dioxopiperidin-3-yl)-5-((6-oxo-6-(4-(pyridin-2-yl)piperazin-1-yl)hexyl)amino)isoindoline-1,3-dione]							IC50 (MOLM-13 cells; Homo sapiens, MOLM-13, 72 h, read-out: MOLM-13 IC50): 0.146 µM; IC50 (MOLM-13 cells; Homo sapiens, MOLM-13, 72 h, read-out: MOLM-13 IC50 gilteritinib): 0.007 µM; IC50 (MV4;11 cells; Homo sapiens, MV4-11, 72 h, 11 IC50): 0.162 µM; IC50 (MV4;11 cells; Homo sapiens, MV4-11, 72 h, 11 IC50 gilteritinib): 0.0094 µM

Now from value to compound, other results behind:

IC50 (MOLM-13 cells; [1]) [µM]	IC50 (MOLM-13 cells; [2]) [µM]	IC50 (MV4;11 cells; [3]) [µM]	IC50 (MV4;11 cells; [4]) [µM]	IC50 (MOLM-13 cells; [5]) [µM]	IC50 (MV4;11 cells; [6]) [µM]	Structure (SMILES)	other results
0.01 to 0.1		0.01 to 0.1		< 0.01	< 0.01	Cc1nc(-c2cn([C@H]3C[C@H](CNc4ccc5c(c4)C(=O)N(C4CCC(=O)NC4=O)C5=O)C3)nc2C2CC2)ccc1Cl (stereo partly drawn) [GS-609, 5-(((trans-3-(4-(5-Chloro-6-methylpyridin-2-yl)-3-cyclopropyl-1H-pyrazol-1-yl)cyclobutyl)methyl)amino)-2-(2,6-dioxopiperidin-3-yl)isoindoline-1,3-dione]	
0.1 to 1	< 0.01	0.1 to 1	0.01 to 0.1			N#Cc1ccc2ncc(-c3cnn(C4CC(CCCNc5ccc6c(c5)C(=O)N(C5CCC(=O)NC5=O)C6=O)C4)c3)nc2c1 (centres unmarked) [GS-175, 3-(1-(3-(3-((2-(2,6-Dioxopiperidin-3-yl)-1,3-dioxoisoindolin-5-yl)amino)propyl)cyclobutyl)-1H-pyrazol-4-yl)quinoxaline-6-carbonitrile]	
0.01 to 0.1		0.01 to 0.1		< 0.01	< 0.01	CN(C)c1cccnc1-c1cn([C@H]2C[C@H](CNc3ccc4c(c3)C(=O)N(C3CCC(=O)NC3=O)C4=O)C2)nc1C1CC1 (stereo partly drawn) [GS-621, 5-(((trans-3-(3-Cyclopropyl-4-(3-(dimethylamino)pyridin-2-yl)-1H-pyrazol-1-yl)cyclobutyl)methyl)amino)-2-(2,6-dioxopiperidin-3-yl)isoindoline-1,3-dione]	
0.1 to 1	0.01 to 0.1	0.1 to 1	0.01 to 0.1			CN1CCN(c2ccc3ncc(-c4cnn([C@H]5C[C@H](CNc6ccc7c(c6)C(=O)N(C6CCC(=O)NC6=O)C7=O)C5)c4)nc3c2)CC1 (stereo partly drawn) [GS-185, 2-(2,6-Dioxopiperidin-3-yl)-5-(((trans-3-(4-(7-(4-methylpiperazin-1-yl)quinoxalin-2-yl)-1H-pyrazol-1-yl)cyclobutyl)methyl)amino)isoindoline-1,3-dione]	
0.01 to 0.1		0.01 to 0.1		< 0.01	< 0.01	O=C1CCC(N2C(=O)c3ccc(NCCCCC(=O)N4CCC(n5cc(-c6cnc7ccc(N8CCNCC8)cc7n6)cn5)CC4)cc3C2=O)C(=O)N1 (centres unmarked) [GS-543, 2-(2,6-Dioxopiperidin-3-yl)-5-((5-oxo-5-(4-(4-(7-(piperazin-1-yl)quinoxalin-2-yl)-1H-pyrazol-1-yl)piperidin-1-yl)pentyl)amino)isoindoline-1,3-dione]	
0.01 to 0.1		0.01 to 0.1		< 0.01	0.01 to 0.1	CN1CCC(c2ccc3nc(-c4cnn([C@H]5C[C@H](CCCNc6ccc7c(c6)C(=O)N(C6CCC(=O)NC6=O)C7=O)C5)c4)cnc3c2)CC1 (stereo partly drawn) [GS-419, 2-(2,6-dioxopiperidin-3-yl)-5-((3-(trans-3-(4-(6-(1-methylpiperidin-4-yl)quinoxalin-2-yl)-1H-pyrazol-1-yl)cyclobutyl)propyl)amino)isoindoline-1,3-dione]	
